{"source": "PubChem BioAssay AID1259409", "about": "(Chemical Carcinogenesis Research Information System (CCRIS), 2018)", "origin": "cited, not measured here", "test_system": "rodent chemically induced tumor inhibition, incidence and multiplicity", "assay": "CCRIS tumor inhibitor studies", "settings": "Dose [Inhibitor]: 0"}
{"molecule": "CC(C)=CCC/C(C)=C/C=C/C(C)=C/C=C/C(C)=C/C=C/C=C(C)/C=C/C=C(C)/C=C/C=C(\\C)CCC=C(C)C", "values": [{"measurement": "tumour outcome (control, treated, inhibition, significance)", "setting": "Carcinogen: 7,12-DIMETHYLBENZ[A]ANTHRACENE, 57-97-6, 2.5 MG/KG ON DAYS ALTERNATE TO CARCINOGEN APPLICATION FOR STUDY DURATION (STUDY DURATION: 14 WK), Route [Inhibitor]: GAVAGE, Species: HAMSTER, Strain/Sex: SYRIAN/MALE, Target Tissue: Type of Lesion: BUCCAL POUCH: SQUAMOUS CELL CARCINOMA, Dose [Carcinogen]: 0.5% IN LIQUID PARAFFIN ON RIGHT BUCCAL POUCH 3X/WK FOR 14 WK, Promoter: NONE USED", "value": "6/6 (100%), 0/6 (0%), 100%, not calculated"}, {"measurement": "tumour outcome (control, treated, inhibition, significance)", "setting": "Carcinogen: DIETHYLNITROSAMINE: 55-18-5, N-METHYL-N-NITROSOUREA, 684-93-5, 1,2-DIMETHYLHYDRAZINE, 540-73-8, Carcinogen: DIETHYLNITROSAMINE: 55-18-5, N-METHYL-N-NITROSOUREA, 684-93-5, 1,2-DIMETHYLHYDRAZINE, 540-73-8, 25 PPM IN DIET FOR 21 WK BEGINNING 2 WK POST CARCINOGEN TREATMENT (STUDY DURATION: 213 D), Route [Inhibitor]: ORAL, Species: MOUSE, Strain/Sex: B6C3F1/FEMALE, Target Tissue: Type of Lesion: LUNG: ADENOMA, Dose [Carcinogen]: 10 MG/KG BW DEN TWICE ON DAYS 1 AND 21, 120 PPM MNU IN DRINKING WATER DURING WKS 4-9, 20 MG/KG BW DMH 2/WK DURING WKS 4-, Dose [Carcinogen]: 10 MG/KG BW DEN TWICE ON DAYS 1 AND 21, 120 PPM MNU IN DRINKING WATER DURING WKS 4-9, 20 MG/KG BW DMH 2/WK DURING WKS 4-", "value": "6/16 (38%), 3/16 (19%), 50%, not significant"}, {"measurement": "outcome", "setting": "Carcinogen: DIETHYLNITROSAMINE: 55-18-5, N-METHYL-N-NITROSOUREA, 684-93-5, 1,2-DIMETHYLHYDRAZINE, 540-73-8, Carcinogen: DIETHYLNITROSAMINE: 55-18-5, N-METHYL-N-NITROSOUREA, 684-93-5, 1,2-DIMETHYLHYDRAZINE, 540-73-8, 25 PPM IN DIET FOR 21 WK BEGINNING 2 WK POST CARCINOGEN TREATMENT (STUDY DURATION: 213 D), Route [Inhibitor]: ORAL, Species: MOUSE, Strain/Sex: B6C3F1/FEMALE, Target Tissue: Type of Lesion: LUNG: CARCINOMA, Dose [Carcinogen]: 10 MG/KG BW DEN TWICE ON DAYS 1 AND 21, 120 PPM MNU IN DRINKING WATER DURING WKS 4-9, 20 MG/KG BW DMH 2/WK DURING WKS 4-, Dose [Carcinogen]: 10 MG/KG BW DEN TWICE ON DAYS 1 AND 21, 120 PPM MNU IN DRINKING WATER DURING WKS 4-9, 20 MG/KG BW DMH 2/WK DURING WKS 4-", "value": "0/16 (0%), 0/16 (0%), 0%, not significant"}, {"measurement": "tumour outcome (control, treated, inhibition, significance)", "setting": "Carcinogen: DIETHYLNITROSAMINE: 55-18-5, N-METHYL-N-NITROSOUREA, 684-93-5, 1,2-DIMETHYLHYDRAZINE, 540-73-8, Carcinogen: DIETHYLNITROSAMINE: 55-18-5, N-METHYL-N-NITROSOUREA, 684-93-5, 1,2-DIMETHYLHYDRAZINE, 540-73-8, 25 PPM IN DIET FOR 21 WK BEGINNING 2 WK POST CARCINOGEN TREATMENT (STUDY DURATION: 213 D), Route [Inhibitor]: ORAL, Species: MOUSE, Strain/Sex: B6C3F1/MALE, Target Tissue: Type of Lesion: LUNG: ADENOMA, Dose [Carcinogen]: 10 MG/KG BW DEN TWICE ON DAYS 1 AND 21, 120 PPM MNU IN DRINKING WATER DURING WKS 4-9, 20 MG/KG BW DMH 2/WK DURING WKS 4-, Dose [Carcinogen]: 10 MG/KG BW DEN TWICE ON DAYS 1 AND 21, 120 PPM MNU IN DRINKING WATER DURING WKS 4-9, 20 MG/KG BW DMH 2/WK DURING WKS 4-", "value": "11/16 (69%), 11/15 (69%), 0%, not significant"}, {"measurement": "tumour outcome (control, treated, inhibition, significance)", "setting": "Carcinogen: DIETHYLNITROSAMINE: 55-18-5, N-METHYL-N-NITROSOUREA, 684-93-5, 1,2-DIMETHYLHYDRAZINE, 540-73-8, Carcinogen: DIETHYLNITROSAMINE: 55-18-5, N-METHYL-N-NITROSOUREA, 684-93-5, 1,2-DIMETHYLHYDRAZINE, 540-73-8, 25 PPM IN DIET FOR 21 WK BEGINNING 2 WK POST CARCINOGEN TREATMENT (STUDY DURATION: 213 D), Route [Inhibitor]: ORAL, Species: MOUSE, Strain/Sex: B6C3F1/MALE, Target Tissue: Type of Lesion: LUNG: CARCINOMA, Dose [Carcinogen]: 10 MG/KG BW DEN TWICE ON DAYS 1 AND 21, 120 PPM MNU IN DRINKING WATER DURING WKS 4-9, 20 MG/KG BW DMH 2/WK DURING WKS 4-, Dose [Carcinogen]: 10 MG/KG BW DEN TWICE ON DAYS 1 AND 21, 120 PPM MNU IN DRINKING WATER DURING WKS 4-9, 20 MG/KG BW DMH 2/WK DURING WKS 4-", "value": "1/16 (6%), 2/16 (12%), -98%, not significant"}, {"measurement": "tumour outcome (control, treated, inhibition, significance)", "setting": "Carcinogen: DIETHYLNITROSAMINE: 55-18-5, N-METHYL-N-NITROSOUREA, 684-93-5, 1,2-DIMETHYLHYDRAZINE, 540-73-8, Carcinogen: DIETHYLNITROSAMINE: 55-18-5, N-METHYL-N-NITROSOUREA, 684-93-5, 1,2-DIMETHYLHYDRAZINE, 540-73-8, 50 PPM IN DIET FOR 21 WK BEGINNING 2 WK POST CARCINOGEN TREATMENT (STUDY DURATION: 213 D), Route [Inhibitor]: ORAL, Species: MOUSE, Strain/Sex: B6C3F1/FEMALE, Target Tissue: Type of Lesion: LUNG: ADENOMA, Dose [Carcinogen]: 10 MG/KG BW DEN TWICE ON DAYS 1 AND 21, 120 PPM MNU IN DRINKING WATER DURING WKS 4-9, 20 MG/KG BW DMH 2/WK DURING WKS 4-, Dose [Carcinogen]: 10 MG/KG BW DEN TWICE ON DAYS 1 AND 21, 120 PPM MNU IN DRINKING WATER DURING WKS 4-9, 20 MG/KG BW DMH 2/WK DURING WKS 4-", "value": "6/16 (37%), 8/15 (53%), -42%, not significant"}, {"measurement": "outcome", "setting": "Carcinogen: DIETHYLNITROSAMINE: 55-18-5, N-METHYL-N-NITROSOUREA, 684-93-5, 1,2-DIMETHYLHYDRAZINE, 540-73-8, Carcinogen: DIETHYLNITROSAMINE: 55-18-5, N-METHYL-N-NITROSOUREA, 684-93-5, 1,2-DIMETHYLHYDRAZINE, 540-73-8, 50 PPM IN DIET FOR 21 WK BEGINNING 2 WK POST CARCINOGEN TREATMENT (STUDY DURATION: 213 D), Route [Inhibitor]: ORAL, Species: MOUSE, Strain/Sex: B6C3F1/FEMALE, Target Tissue: Type of Lesion: LUNG: CARCINOMA, Dose [Carcinogen]: 10 MG/KG BW DEN TWICE ON DAYS 1 AND 21, 120 PPM MNU IN DRINKING WATER DURING WKS 4-9, 20 MG/KG BW DMH 2/WK DURING WKS 4-, Dose [Carcinogen]: 10 MG/KG BW DEN TWICE ON DAYS 1 AND 21, 120 PPM MNU IN DRINKING WATER DURING WKS 4-9, 20 MG/KG BW DMH 2/WK DURING WKS 4-", "value": "0/16 (0%), 0/15 (0%), 0%, not significant"}, {"measurement": "tumour outcome (control, treated, inhibition, significance)", "setting": "Carcinogen: DIETHYLNITROSAMINE: 55-18-5, N-METHYL-N-NITROSOUREA, 684-93-5, 1,2-DIMETHYLHYDRAZINE, 540-73-8, Carcinogen: DIETHYLNITROSAMINE: 55-18-5, N-METHYL-N-NITROSOUREA, 684-93-5, 1,2-DIMETHYLHYDRAZINE, 540-73-8, 50 PPM IN DIET FOR 21 WK BEGINNING 2 WK POST CARCINOGEN TREATMENT (STUDY DURATION: 213 D), Route [Inhibitor]: ORAL, Species: MOUSE, Strain/Sex: B6C3F1/MALE, Target Tissue: Type of Lesion: LUNG: ADENOMA, Dose [Carcinogen]: 10 MG/KG BW DEN TWICE ON DAYS 1 AND 21, 120 PPM MNU IN DRINKING WATER DURING WKS 4-9, 20 MG/KG BW DMH 2/WK DURING WKS 4-, Dose [Carcinogen]: 10 MG/KG BW DEN TWICE ON DAYS 1 AND 21, 120 PPM MNU IN DRINKING WATER DURING WKS 4-9, 20 MG/KG BW DMH 2/WK DURING WKS 4-", "value": "11/16 (69%), 3/16 (19%), 73%, not significant"}, {"measurement": "tumour outcome (control, treated, inhibition, significance)", "setting": "Carcinogen: DIETHYLNITROSAMINE: 55-18-5, N-METHYL-N-NITROSOUREA, 684-93-5, 1,2-DIMETHYLHYDRAZINE, 540-73-8, Carcinogen: DIETHYLNITROSAMINE: 55-18-5, N-METHYL-N-NITROSOUREA, 684-93-5, 1,2-DIMETHYLHYDRAZINE, 540-73-8, 50 PPM IN DIET FOR 21 WK BEGINNING 2 WK POST CARCINOGEN TREATMENT (STUDY DURATION: 213 D), Route [Inhibitor]: ORAL, Species: MOUSE, Strain/Sex: B6C3F1/MALE, Target Tissue: Type of Lesion: LUNG: CARCINOMA, Dose [Carcinogen]: 10 MG/KG BW DEN TWICE ON DAYS 1 AND 21, 120 PPM MNU IN DRINKING WATER DURING WKS 4-9, 20 MG/KG BW DMH 2/WK DURING WKS 4-, Dose [Carcinogen]: 10 MG/KG BW DEN TWICE ON DAYS 1 AND 21, 120 PPM MNU IN DRINKING WATER DURING WKS 4-9, 20 MG/KG BW DMH 2/WK DURING WKS 4-", "value": "1/16 (6%), 0/16 (0%), 100%, not significant"}, {"measurement": "tumour outcome (control, treated, inhibition, significance)", "setting": "Carcinogen: DIETHYLNITROSAMINE, 55-18-5, N-METHYL-N-NITROSOUREA, 684-93-5, 1,2-DIMETHYLHYDRAZINE, 306-37-6, Carcinogen: DIETHYLNITROSAMINE, 55-18-5, N-METHYL-N-NITROSOUREA, 684-93-5, 1,2-DIMETHYLHYDRAZINE, 306-37-6, 25 PPM IN DRINKING WATER FOR 21 WK BEGINNING 2 WK POST CARCINOGEN TREATMENT (STUDY DURATION: 32 WK), Route [Inhibitor]: ORAL, Species: MOUSE, Strain/Sex: B6C3F1/FEMALE, Target Tissue: Type of Lesion: LUNG: ADENOMA, Dose [Carcinogen]: 10 MG/KG BW DEN ON DAYS 11 AND 32 OF AGE, 120 PPM MNU IN DRINKING WATER FROM WKS 4 TO 9, 20 MG/KG BW DMH 2/WK FOR 5 WK, Promoter: NONE USED", "value": "6/16 (38%), 3/16 (19%), 50%, not significant"}]}
